Source: patent US20230277669A1, “USES OF UROLITHINS” (Amazentis SA, priority 2022, published 2023)

System: subcutaneous APTK tumors
Test: Oral UA in Rag1-/- mice with s.c. APTK tumors
Assay type: in vivo
Settings: UA-containing vs control food; no mature T and B cells
Text: Oral UA confers anti-tumor effects in murine colorectal cancer in a T-cell dependent manner. (FIG. 1A) Schematic representation of AOM model and different UA containing diets. (FIG. 1B) Representative images of swiss-roll sections from AOM-induced colon tumors. Scale bars are 2 mm (upper row) and 300 µm (lower row), respectively. (FIG. 1C) Tumor incidence of AOM-induced tumors receiving different UA-containing diets; n=4/5/5. Data are mean ±SD, depicting one of two independent experiments. *p < 0.05 by two-sided t-test. (FIG. 1D) Average lesion size of AOM-induced tumors receiving different UA-containing diets; n=4/5/5. Data are mean ±SD, depicting one of two independent experiments. *p < 0.05 by two-sided t-test. (FIG. 1E) Relative number of CD45^+CD3^+ T cells in colons of AOM-treated mice at week 24 (n>7, pooled from two independent experiments). Data are mean ± SD, **p < 0.01 by two-sided t-test. (FIG. 1F) Organoid treatment scheme. […] (FIG. 1G) Quantification of lysosome formation as assessed by lysotracker MFI via flow cytometry after 24 h incubation at the presence of various UA concentrations (n=5/4/4). […] (FIG. 1L) End point tumor weight, (FIG. 1M) CD8+ T cell infiltration in APTK-s.c. tumors assessed by flow cytometry, normalising total number of CD8^+ T cells to tumor weight (n=7 per group). […]

Question: `O=c1oc2cc(O)ccc2c2ccc(O)cc12` [Urolithin A] was tested. Which “tumor size, protective effect of UA” value did it give?
Answer: Its value is “abrogated the protective effect of UA”.
